According to patent US20230085307A1, “PYRIDAZINONE COMPOUND AND HERBICIDE” (NISSAN CHEMICAL CORPORATION, priority 2019, published 2023):

What was measured:
late watergrass = assay: Test Example 1: herbicidal activity, application before weed generation under submerged conditions (Table 16, symbol A); assay type: in vivo, late watergrass (Echinochloa oryzicola); conditions: amount of applied herbicide 320 g/ha
How it was run: (§1)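 Alluvial soil was flooded to 4 cm depth, weed seeds were sown mixed and 2.5-leaf rice seedlings were transplanted. On sowing day, the compound's emulsion, diluted in water to a set dose, was applied to the water surface. Plants grew at 25–30 °C and were scored 0–5 after three weeks.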

Japanese bulrush = assay: Test Example 1: herbicidal activity, application before weed generation under submerged conditions (Table 16, symbol B); assay type: in vivo, Japanese bulrush (Schoenoplectus juncoides); conditions: amount of applied herbicide 320 g/ha
How it was run: as §1

oval-leafed pondweed = assay: Test Example 1: herbicidal activity, application before weed generation under submerged conditions (Table 16, symbol C); assay type: in vivo, oval-leafed pondweed (Monochoria vaginalis); conditions: amount of applied herbicide 320 g/ha
How it was run: as §1

barnyard grass [1] = assay: Test Example 3: herbicidal effect by foliage application, Wagner pot (Table 18, symbol H); assay type: in vivo, barnyard grass (Echinochloa crus-galli)
How it was run: (§2)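 Plants were sown in alluvial soil held under 0.1–0.5 cm standing water and grown 14 days in a greenhouse at 25–30 °C. An emulsifiable formulation, water-diluted to the set dose, was then sprayed onto the foliage, and effects were scored three weeks later using previously defined criteria.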

Chinese sprangletop = assay: Test Example 3: herbicidal effect by foliage application, Wagner pot (Table 18, symbol D); assay type: in vivo, chinese sprangletop (Leptochloa chinensis)
How it was run: as §2

rice flat sedge = assay: Test Example 3: herbicidal effect by foliage application, Wagner pot (Table 18, symbol E); assay type: in vivo, rice flat sedge (Cyperus iria)
How it was run: as §2

southern crabgrass [2] = assay: Test Example 4: herbicidal effect by soil treatment (Table 19, symbol F); assay type: in vivo, southern crabgrass (Digitaria ciliaris); conditions: amount of applied herbicide 320 g/ha
How it was run: (§3)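 Herbicidal effect was rated 3 weeks after treatment, using the scoring criteria of an earlier test. The compound, formulated as an emulsion and diluted in water to a set herbicide amount, had been sprayed uniformly on soil over freshly sown seeds. Growth took place in a greenhouse at 25° C. to 30° C.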

green foxtail [3] = assay: Test Example 4: herbicidal effect by soil treatment (Table 19, symbol G); assay type: in vivo, green foxtail (Setaria viridis); conditions: amount of applied herbicide 320 g/ha
How it was run: as §3

barnyard grass [4] = assay: Test Example 4: herbicidal effect by soil treatment (Table 19, symbol H); assay type: in vivo, barnyard grass (Echinochloa crus-galli); conditions: amount of applied herbicide 320 g/ha
How it was run: as §3

wild oat [5] = assay: Test Example 4: herbicidal effect by soil treatment (Table 19, symbol I); assay type: in vivo, wild oat (Avena fatua); conditions: amount of applied herbicide 320 g/ha
How it was run: as §3

blackgrass [6] = assay: Test Example 4: herbicidal effect by soil treatment (Table 19, symbol J); assay type: in vivo, blackgrass (Alopecurus myosuroides); conditions: amount of applied herbicide 320 g/ha
How it was run: as §3

Italian ryegrass [7] = assay: Test Example 4: herbicidal effect by soil treatment (Table 19, symbol K); assay type: in vivo, Italian ryegrass (Lolium multiflorum); conditions: amount of applied herbicide 320 g/ha
How it was run: as §3

windgrass [8] = assay: Test Example 4: herbicidal effect by soil treatment (Table 19, symbol L); assay type: in vivo, windgrass (Apera spica-venti); conditions: amount of applied herbicide 320 g/ha
How it was run: as §3

velvetleaf [9] = assay: Test Example 4: herbicidal effect by soil treatment (Table 19, symbol M); assay type: in vivo, velvetleaf (Abutilon theophrasti); conditions: amount of applied herbicide 320 g/ha
How it was run: as §3

redroot pigweed [10] = assay: Test Example 4: herbicidal effect by soil treatment (Table 19, symbol N); assay type: in vivo, redroot pigweed (Amaranthus retroflexus); conditions: amount of applied herbicide 320 g/ha
How it was run: as §3

lambsquarters [11] = assay: Test Example 4: herbicidal effect by soil treatment (Table 19, symbol O); assay type: in vivo, lambsquarters (Chenopodium album); conditions: amount of applied herbicide 320 g/ha
How it was run: as §3

chickweed [12] = assay: Test Example 4: herbicidal effect by soil treatment (Table 19, symbol P); assay type: in vivo, common chickweed (Stellaria media); conditions: amount of applied herbicide 320 g/ha
How it was run: as §3

persian speedwell [13] = assay: Test Example 4: herbicidal effect by soil treatment (Table 19, symbol R); assay type: in vivo, Persian speedwell (Veronica persica); conditions: amount of applied herbicide 320 g/ha
How it was run: as §3

southern crabgrass [14] = assay: Test Example 5: herbicidal effect by foliage application, plastic box (Table 20, symbol F); assay type: in vivo, southern crabgrass (Digitaria ciliaris)
How it was run: (§4)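 Foliar spray test: emulsion formulation diluted in water to a set application rate, sprayed onto 14-day-old plants raised in diluvial soil at 25° C to 30° C under glass. Both herbicidal effect and crop effect rated visually three weeks later.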

green foxtail [15] = assay: Test Example 5: herbicidal effect by foliage application, plastic box (Table 20, symbol G); assay type: in vivo, green foxtail (Setaria viridis)
How it was run: as §4

barnyard grass [16] = assay: Test Example 5: herbicidal effect by foliage application, plastic box (Table 20, symbol H); assay type: in vivo, barnyard grass (Echinochloa crus-galli)
How it was run: as §4

wild oat [17] = assay: Test Example 5: herbicidal effect by foliage application, plastic box (Table 20, symbol I); assay type: in vivo, wild oat (Avena fatua)
How it was run: as §4

blackgrass [18] = assay: Test Example 5: herbicidal effect by foliage application, plastic box (Table 20, symbol J); assay type: in vivo, blackgrass (Alopecurus myosuroides)
How it was run: as §4

Italian ryegrass [19] = assay: Test Example 5: herbicidal effect by foliage application, plastic box (Table 20, symbol K); assay type: in vivo, Italian ryegrass (Lolium multiflorum)
How it was run: as §4

windgrass [20] = assay: Test Example 5: herbicidal effect by foliage application, plastic box (Table 20, symbol L); assay type: in vivo, windgrass (Apera spica-venti)
How it was run: as §4

velvetleaf [21] = assay: Test Example 5: herbicidal effect by foliage application, plastic box (Table 20, symbol M); assay type: in vivo, velvetleaf (Abutilon theophrasti)
How it was run: as §4

redroot pigweed [22] = assay: Test Example 5: herbicidal effect by foliage application, plastic box (Table 20, symbol N); assay type: in vivo, redroot pigweed (Amaranthus retroflexus)
How it was run: as §4

lambsquarters [23] = assay: Test Example 5: herbicidal effect by foliage application, plastic box (Table 20, symbol O); assay type: in vivo, lambsquarters (Chenopodium album)
How it was run: as §4

chickweed [24] = assay: Test Example 5: herbicidal effect by foliage application, plastic box (Table 20, symbol P); assay type: in vivo, common chickweed (Stellaria media)
How it was run: as §4

false cleavers = assay: Test Example 5: herbicidal effect by foliage application, plastic box (Table 20, symbol Q); assay type: in vivo, false cleavers (Galium spurium)
How it was run: as §4

persian speedwell [25] = assay: Test Example 5: herbicidal effect by foliage application, plastic box (Table 20, symbol R); assay type: in vivo, Persian speedwell (Veronica persica)
How it was run: as §4

[26] = amount of applied herbicide 320 g/ha
[27] = foliage application, 320 g/ha, three weeks after application
[28] = amount of applied herbicide 320 g/ha, foliage application after 14-day growth, evaluated three weeks after application

Cc1nn(Cc2ccccc2)c(=O)c(-c2c(-c3ccc(F)cc3)sc3ccc(F)cc23)c1O [2-432]
Herbicidal effect, A: late watergrass (late watergrass): 2 (Herbicidal rate of 20% or more and less than 40%)
Herbicidal effect, B: Japanese bulrush (Japanese bulrush): 0 (Herbicidal rate of 5% or less (almost no effect))
Herbicidal effect, C: oval-leafed pondweed (oval-leafed pondweed): 0 (Herbicidal rate of 5% or less (almost no effect))
herbicidal effect on H: barnyard grass (barnyard grass [1]; [26]): 3 (Herbicidal rate of 40% or more and less than 70%)
herbicidal effect on D: Chinese sprangletop (Chinese sprangletop; [26]): 0 (Herbicidal rate of 5% or less (almost no effect))
herbicidal effect on E: rice flat sedge (rice flat sedge; [26]): 2 (Herbicidal rate of 20% or more and less than 40%)
herbicidal effect, F: southern crabgrass (southern crabgrass [2]): 0 (Herbicidal rate of 5% or less (almost no effect))
herbicidal effect, G: green foxtail (green foxtail [3]): 1 (Herbicidal rate of 5% or more and less than 20%)
herbicidal effect, H: barnyard grass (barnyard grass [4]): 0 (Herbicidal rate of 5% or less (almost no effect))
herbicidal effect, I: wild oat (wild oat [5]): 0 (Herbicidal rate of 5% or less (almost no effect))
herbicidal effect, J: blackgrass (blackgrass [6]): 0 (Herbicidal rate of 5% or less (almost no effect))
herbicidal effect, K: Italian ryegrass (Italian ryegrass [7]): 0 (Herbicidal rate of 5% or less (almost no effect))
herbicidal effect, L: windgrass (windgrass [8]): 0 (Herbicidal rate of 5% or less (almost no effect))
herbicidal effect, M: velvetleaf (velvetleaf [9]): 0 (Herbicidal rate of 5% or less (almost no effect))
herbicidal effect, N: redroot pigweed (redroot pigweed [10]): 3 (Herbicidal rate of 40% or more and less than 70%)
herbicidal effect, O: lambsquarters (lambsquarters [11]): 2 (Herbicidal rate of 20% or more and less than 40%)
herbicidal effect, P: chickweed (chickweed [12]): 0 (Herbicidal rate of 5% or less (almost no effect))
herbicidal effect, R: persian speedwell (persian speedwell [13]): 0 (Herbicidal rate of 5% or less (almost no effect))
F: southern crabgrass, herbicidal effect grade (southern crabgrass [14]; [27]): 3 (Herbicidal rate of 40% or more and less than 70%)
G: green foxtail, herbicidal effect grade (green foxtail [15]; [27]): 0 (Herbicidal rate of 5% or less (almost no effect))
H: barnyard grass, herbicidal effect grade (barnyard grass [16]; [27]): 1 (Herbicidal rate of 5% or more and less than 20%)
I: wild oat, herbicidal effect grade (wild oat [17]; [27]): 0 (Herbicidal rate of 5% or less (almost no effect))
J: blackgrass, herbicidal effect grade (blackgrass [18]; [27]): 0 (Herbicidal rate of 5% or less (almost no effect))
K: Italian ryegrass, herbicidal effect grade (Italian ryegrass [19]; [27]): 0 (Herbicidal rate of 5% or less (almost no effect))
L: windgrass, herbicidal effect grade (windgrass [20]; [27]): 0 (Herbicidal rate of 5% or less (almost no effect))
M: velvetleaf, herbicidal effect grade (velvetleaf [21]; [27]): 1 (Herbicidal rate of 5% or more and less than 20%)
N: redroot pigweed, herbicidal effect grade (redroot pigweed [22]; [27]): 5 (Herbicidal rate of 90% or more (almost completely withered))
O: lambsquarters, herbicidal effect grade (lambsquarters [23]; [27]): 2 (Herbicidal rate of 20% or more and less than 40%)
P: chickweed, herbicidal effect grade (chickweed [24]; [27]): 5 (Herbicidal rate of 90% or more (almost completely withered))
Q: false cleavers, herbicidal effect grade (false cleavers; [27]): 3 (Herbicidal rate of 40% or more and less than 70%)
R: persian speedwell, herbicidal effect grade (persian speedwell [25]; [27]): 5 (Herbicidal rate of 90% or more (almost completely withered))

Cc1nn(C)c(=O)c(-c2c(-c3ccc(F)cc3)sc3cc(F)c(F)cc23)c1O [5-001]
Herbicidal effect, A: late watergrass (late watergrass): 3 (Herbicidal rate of 40% or more and less than 70%)
Herbicidal effect, B: Japanese bulrush (Japanese bulrush): 1 (Herbicidal rate of 5% or more and less than 20%)
Herbicidal effect, C: oval-leafed pondweed (oval-leafed pondweed): 0 (Herbicidal rate of 5% or less (almost no effect))
herbicidal effect on barnyard grass (H) (barnyard grass [1]; 320 g/ha): 4 (Herbicidal rate of 70% or more and less than 90%)
herbicidal effect on Chinese sprangletop (D) (Chinese sprangletop; 320 g/ha): 3 (Herbicidal rate of 40% or more and less than 70%)
herbicidal effect on rice flat sedge (E) (rice flat sedge; 320 g/ha): 5 (Herbicidal rate of 90% or more (almost completely withered))
F: southern crabgrass, herbicidal effect grade (southern crabgrass [2]): 5 (Herbicidal rate of 90% or more (almost completely withered))
G: green foxtail, herbicidal effect grade (green foxtail [3]): 5 (Herbicidal rate of 90% or more (almost completely withered))
H: barnyard grass, herbicidal effect grade (barnyard grass [4]): 0 (Herbicidal rate of 5% or less (almost no effect))
I: wild oat, herbicidal effect grade (wild oat [5]): 3 (Herbicidal rate of 40% or more and less than 70%)
J: blackgrass, herbicidal effect grade (blackgrass [6]): 4 (Herbicidal rate of 70% or more and less than 90%)
K: Italian ryegrass, herbicidal effect grade (Italian ryegrass [7]): 5 (Herbicidal rate of 90% or more (almost completely withered))
L: windgrass, herbicidal effect grade (windgrass [8]): 5 (Herbicidal rate of 90% or more (almost completely withered))
M: velvetleaf, herbicidal effect grade (velvetleaf [9]): 4 (Herbicidal rate of 70% or more and less than 90%)
N: redroot pigweed, herbicidal effect grade (redroot pigweed [10]): 5 (Herbicidal rate of 90% or more (almost completely withered))
O: lambsquarters, herbicidal effect grade (lambsquarters [11]): 5 (Herbicidal rate of 90% or more (almost completely withered))
P: chickweed, herbicidal effect grade (chickweed [12]): 4 (Herbicidal rate of 70% or more and less than 90%)
R: persian speedwell, herbicidal effect grade (persian speedwell [13]): 5 (Herbicidal rate of 90% or more (almost completely withered))
Herbicidal effect by foliage application, F: southern crabgrass (southern crabgrass [14]; [28]): 5 (Herbicidal rate of 90% or more (almost completely withered))
Herbicidal effect by foliage application, G: green foxtail (green foxtail [15]; [28]): 5 (Herbicidal rate of 90% or more (almost completely withered))
Herbicidal effect by foliage application, H: barnyard grass (barnyard grass [16]; [28]): 4 (Herbicidal rate of 70% or more and less than 90%)
Herbicidal effect by foliage application, I: wild oat (wild oat [17]; [28]): 4 (Herbicidal rate of 70% or more and less than 90%)
Herbicidal effect by foliage application, J: blackgrass (blackgrass [18]; [28]): 4 (Herbicidal rate of 70% or more and less than 90%)
Herbicidal effect by foliage application, K: Italian ryegrass (Italian ryegrass [19]; [28]): 5 (Herbicidal rate of 90% or more (almost completely withered))
Herbicidal effect by foliage application, L: windgrass (windgrass [20]; [28]): 5 (Herbicidal rate of 90% or more (almost completely withered))
Herbicidal effect by foliage application, M: velvetleaf (velvetleaf [21]; [28]): 5 (Herbicidal rate of 90% or more (almost completely withered))
Herbicidal effect by foliage application, N: redroot pigweed (redroot pigweed [22]; [28]): 5 (Herbicidal rate of 90% or more (almost completely withered))
Herbicidal effect by foliage application, O: lambsquarters (lambsquarters [23]; [28]): 5 (Herbicidal rate of 90% or more (almost completely withered))
Herbicidal effect by foliage application, P: chickweed (chickweed [24]; [28]): 5 (Herbicidal rate of 90% or more (almost completely withered))
Herbicidal effect by foliage application, Q: false cleavers (false cleavers; [28]): 5 (Herbicidal rate of 90% or more (almost completely withered))
Herbicidal effect by foliage application, R: persian speedwell (persian speedwell [25]; [28]): 5 (Herbicidal rate of 90% or more (almost completely withered))
